# In patent US20260345555A1, “Compositions and Methods for Protecting Salivary Glands from Off-Target Radiation Damage” (University of Rochester, priority 2022, published 2026):
# “Also recorded” adds a separate entry of the source.
# Key:
# [1] = system: senescence-associated β-galactosidase in salivary gland cell clusters (SGm); experiment: Cellular senescence assay (SPiDER-βGal) in salivary gland tissue chip, 5 days post-radiation (15 Gy); also second screen of library hits at 100 μM; assay type: cell-based, mouse; conditions: for double hit in the drug screen: glutathione and senescence assays, 100 μM, statistically similar to 0 Gy; for Estimated EC50, Senescence: nonlinear fit in Prism of dose response curves; for Estimated EC50, Senescence / radioprotection in dose response, senescence assay / protection against radiation-induced senescence: 15 Gy; for protection against radiation-induced senescence: 5 days post-radiation; for Senescence (radioprotection): key: +: radioprotection; ~: partial radioprotection; —: no radioprotection
# From the text: The chip platform consists of an array of near-spherical microbubble (MB) cavities formed in poly(dimethylsiloxane) (PDMS). Each chip, containing ~50 MBs, affixed within wells of a 96-well plate (FIG. 1C). Primary salivary gland cell clusters (FIG. 1A), suspended in a poly(ethylene glycol) (PEG) hydrogel precursor and MMP-degradable peptide crosslinker solution together with the photoinitiator LAP, were applied to the chip allowing the clusters to deposit into the MBs (FIG. 1D). In situ polymerization of the hydrogel was achieved using long-wave, low intensity UV light. Over time, the cell clusters aggregate and proliferate to form SGm (FIG. 1C).
# For senescence, a protocol similar to the glutathione assay was followed to determine the optimal time point post-radiation for detecting a change in senescence between 0 Gy and 15 Gy, as measured by senescence-associated β-galactosidase activity.
# The glutathione and senescence assays were used to screen a library of FDA-approved drugs (Selleck Chemicals) at 100 μM. Drugs were first screened using the glutathione assay according to the timeline depicted in FIG. 2A. […] Hits with the glutathione assay were then tested with the senescence assay and considered a “double hit” if senescence levels were statistically similar to levels at 0 Gy (FIG. 4, black circles).
# Mice were euthanized and the submandibular glands (SMG) were removed and chopped with a razor blade for 5 min. […] Cells were centrifuged, then resuspended in HBSS with 15 mM HEPES and passed through 100 μm and 20 μm mesh filters to isolate clusters between 20-100 μm. […] The isolated clusters were combined with hydrogel precursor solution and seeded in MB array-based chips as described below.
# The cell/gel precursor solution (25 μL for 48 well; 20 μL for 96 well) was pipetted onto the MB chips and incubated for 30 min, pipetting every 10 min to redisperse cells that had settled onto the surface of the chip.
# A cellular senescence assay for the chips was developed by adapting the Cellular Senescence Detection Kit—SPiDER-βGal (Dojindo Molecular Technologies, Inc. SG04). Bafilomycin A1 and SPiDER-βGal stock solutions were prepared in DMSO per manufacturer directions. The assay was performed by first incubating the chips with bafilomycin A1 (1:1000 dilution in media) for 1 hr at 37 °C. […] Chips were washed twice with media and imaged using a fluorescence microscope with a Texas Red filter (Excitation: 580 nm; Emission: 604 nm).
# For radioprotection experiments, SGm were cultured in MB-hydrogel chips for 4 days, then drugs were added to the chips 30 min prior to irradiation and washed out with media 30 min post-radiation treatment. […] The glutathione and senescence assays were performed at 4- and 5-days post-radiation. For assay validation experiments, at least 3 chips (N=3) were used for each drug, corresponding to >100 MBs (n>100); these values are listed in the figure description for each experiment. Mean, standard deviation, and statistics were calculated based on the number of MBs (n).
# For screening of the Selleck Chemicals compound library, the same treatment scheme was used, with drugs administered at 100 μM. One MB chip (N=1) was used per compound, with ~40-50 MBs per chip […]; statistics were calculated using the number of MBs (n) and compared to 0 Gy controls.
# For both the glutathione and cellular senescence assays, images were quantified in ImageJ.
# [2] = system: lymphocyte cells; conditions: cited from earlier work
# [3] = in vivo; cited from earlier work
# [4] = system: COX-2; conditions: role: inhibitor; cited from earlier work
# [5] = in vivo; cited from earlier work; remark: listed apart in the source
# [6] = system: COX-1; conditions: role: inhibitor; cited from earlier work
compound,measurement,setting,value
CCn1cc(C(=O)O)c(=O)c2cc(F)c(N3CCNCC3)nc21 [Enoxacin (Penetrex)],double hit in the drug screen,[1],double hits
same,"Estimated EC50, Senescence",[1],0.5 µM
same,EC50,"[2]; radioprotection, read-out: EC50, viability of lymphocyte cells",13 µM
same,radioprotection of lymphocytes,[2]; viability of lymphocytes as primary readout,robust radioprotectors
CCCCC1C(=O)N(c2ccccc2)N(c2ccccc2)C1=O [Phenylbutazone],bioavailability,[3],up to 90%
same,half-life,[3],50 to 105 h
same,"radioprotection in dose response, senescence assay",[1],only partial protection
same,"Estimated EC50, Senescence",[1],0.05 µM
same,COX-2 inhibition,[4],inhibits
same,adverse effects,[5],"rare but severe blood disorders, including anemia and leukopenia"
same,COX-1 inhibition,[6],inhibits
NCCCNCCS [WR-1065],Senescence (radioprotection),[1]; 1 mM,+
same,protection against radiation-induced senescence,[1]; 1 mM,complete radioprotection
same,Senescence (radioprotection),[1]; 4 mM,+
same,protection against radiation-induced senescence,[1]; 4 mM,complete radioprotection; also recorded: restored to levels equivalent to 0 Gy
Doripenem hydrate,"radioprotection in dose response, senescence assay",[1],variable protection
same,double hit in the drug screen,[1],double hits
same,"Estimated EC50, Senescence",[1],16.4 µM
